{"source": "patent US10220026B2", "about": "“Micelle containing epirubicin-complexed block copolymer and anti-cancer agent, and pharmaceutical composition containing said micelle applicable to treatment of cancer, resistant cancer or metastatic cancer” (priority 2014, dated 2019)", "key": {"[1]": {"assay": "Incorporation of compounds in micelles of epirubicin-conjugated block copolymer (HPLC, DLS)", "type": "physicochemical", "details": "for detection of the compound in micelles formed by epirubicin-conjugated block copolymer: micelles produced by the method of Example 1", "protocol": "The mixed solution was applied to a rotary evaporator (N-1200AV (Elyra)) followed by evaporating the methanol. After having evaporated the methanol, HEPES buffer (10 mM, pH 7.4, 50 ml) was added to the flask followed by carrying out sonication for 30 minutes (Bioruptor, Cosmo Bio Co., Ltd., Japan). Subsequently, the solution was passed through a polyethersulfone (PES) filter (0.22 μm) (Millipore Corp.). The solution was further purified by subjecting to five rounds of ultrafiltration (molecular weight cutoff: 30,000 Da) (Centricon Plus-20, Millipore Corp.) for 15 minutes (while adding 5 ml of HEPES buffer (10 mM, pH 7.4) for each round of ultrafiltration) followed by concentrating to 15 ml. Finally, the solution was passed through a PES filter (0.22 μm)."}, "[2]": {"test_system": "epirubicin-resistant human mesothelioma cells (MSTO-211H-luc)", "assay": "In vivo anti-cancer activity in orthotopic mesothelioma model (survival)", "details": "female nude mice, intravenous, epirubicin equivalent 6 mg/kg, Days 5-63", "protocol": "Human mesothelioma MSTO-211H was transfected with luciferase based on the method described in Mol. Ther., 2012 April, 20(4), 769-777 to obtain a luciferase-expressing strain (MSTO-211H-luc). MSTO-211H-luc cells were cultured for 3 months in medium containing 0.2 μg/ml of epirubicin to produce epirubicin-resistant human mesothelioma cells (MSTO-211H-luc). 1×10^6 of the epirubicin-resistant MSTO-211H-luc cells were administered into the thoracic cavity of female nude mice to produce an orthotopic implant model. Five days after administration, drugs at the dosages shown in the following table were diluted with physiological saline for injection (Otsuka Pharmaceutical Co., Ltd.) and administered into the caudal vein (on Days 5, 9, 13, 23, 33, 43, 53 and 63).\nHEPES solution was administered instead of a drug for use as a negative control. […] D-luciferin (Summit Pharmaceuticals International Corp.) was administered intraperitoneally, and body weights of the mice were measured simultaneous to measuring luminescence intensity of the luciferase twice a week using an IVIS Imaging System (Summit Pharmaceuticals International Corp.) (FIGS. 6A to 6C). […] Significant differences as determined with a log-rank test were observed between the negative control and Epi (P=0.016), between Epi and Epi Micelle (P=0.0001) and between Epi Micelle and STS+Epi Micelle (P=0.0012)."}, "[3]": {"test_system": "cisplatin-resistant human lung cancer H460-luc cells", "assay": "In vivo anti-cancer activity in orthotopic lung cancer model (survival)", "details": "female nude mice, intravenous, epirubicin equivalent 6 mg/kg, Days 4, 11, 18, 25, 32", "protocol": "Luciferase-expressing lung cancer H460-luc cells (JCRB) were cultured for 3 months in medium containing 1 μg/ml of cisplatin to acquire a cisplatin-resistant strain. 2×10^6 cells of the cisplatin-resistant strain H460-luc (containing 10% Matrigel (Becton Dickinson) were implanted into the left lower lobe of the lungs of female nude mice in accordance with the method described in Fushiki, et al., Cancer Sci., 2009 August, 100(8). Four days after implant, the drugs indicated in the following table were diluted to their prescribed dosages with physiological saline for injection (Otsuka Pharmaceutical Co., Ltd.) and administered into the caudal vein (on Days 4, 11, 18, 25 and 32).\nHEPES solution was administered instead of a drug for use as a negative control. […] D-luciferin (Summit Pharmaceuticals International Corp.) was administered intraperitoneally and luminescence intensity of the luciferase was measured twice a week using an IVIS Imaging System (Summit Pharmaceuticals International Corp.) (FIG. 8A). Survival curves were verified according to the Kaplan-Meier method using Prism software and the presence of significant differences was tested using the log-rank test."}, "[4]": {"test_system": "mouse kidney cancer-derived cells (Renca)", "assay": "In vivo anti-cancer activity in orthotopic kidney cancer model (survival, lung metastasis, CD105)", "details": "Balb/c mice, intravenous, epirubicin equivalent 6 mg/kg, Days 4, 11, 18", "quoted_text": "2×10^4 mouse kidney cancer-derived cells (Renca) (50 μl, containing 10% Matrigel) were administered into the renal capsules of Balb/c mice using the method described in Dinney, C. […] Four days after administering into the kidney, the drugs indicated in the following table were diluted to their prescribed dosages with physiological saline for injection (Otsuka Pharmaceutical Co., Ltd.) and administered into the caudal vein (on Days 4, 11 and 18).\nHEPES solution was administered instead of a drug for use as a negative control. […] The days in which the animals died were recorded, and survival curves were verified according to the Kaplan-Meier method using Prism software and the presence of significant differences was tested using the log-rank test.\nSixty days later, the diameters of tumors that had metastasized to the lung were measured by 3DμCT (R-mCT2m, Rigaku Corp., Japan) for the experimental animals, or in the case an animal had died, the radius was measured directly following autopsy followed by determination of tumor volume (using the equation 4/3×π×r^3). […] Moreover, the number of cells expressing the stem cell marker, CD105, was measured by flow cytometry."}, "[5]": {"test_system": "Epirubicin-resistant breast cancer cells (MCF-7)", "assay": "Elimination of epirubicin and eFluxx-ID-GFP by resistant strain (confocal microscopy), breast cancer", "type": "cell-based, human", "details": "epirubicin-resistant strain; concentrations of Table 6", "protocol": "(§1) Epirubicin-resistant breast cancer cells (MCF-7) and cisplatin-resistant lung cancer cells (H460) were respectively disseminated in each of the wells of an 8-well Tek chambered cover glass (Thermo Fisher Scientific K.K.) at 1×10^4 cells/well followed by culturing overnight. The medium was then replaced with 200 μl of RPMI1640 (phenol red-free) containing 0.1 μg/ml of Hoechst 33342 and 10% FBS.\n(§2) 200 μl of eFluxx-ID-GFP solution were added 1 hour after addition of drug. The medium was replaced with RPMI1640 medium containing 10% FBS 30 minutes after addition followed by observation with an LSM780 confocal microscope and taking photographs thereof (FIGS. 12B and 13B). Cells subjected to the procedure prior to acquiring resistance were used as a control and epirubicin was added for the drug. In this experiment, fluorescence-labeled epirubicin (manufacturer) was used for the epirubicin."}, "[6]": {"test_system": "cisplatin-resistant lung cancer cells (H460)", "assay": "Elimination of epirubicin and eFluxx-ID-GFP by resistant strain (confocal microscopy), lung cancer", "type": "cell-based, human", "details": "concentrations of Table 6", "protocol": "as §1, §2"}, "[7]": {"test_system": "MSTO-211H mesothelioma cells", "assay": "Aldefluor assay (FACS) on cancer stem cells in mesothelioma", "type": "cell-based, human", "details": "1 μM cisplatin, 0.01 μM pemetrexed, 0.001 μM staurosporine, 0.01 μM UCN-1; 72 hours or 24 hours"}, "[8]": {"test_system": "Mesothelioma cell line MSTO-211H cells", "assay": "Effect of micelle incorporation during addition of hAGP, Cell Counting Kit-8 cell survival", "type": "cell-based, human", "details": "hAGP 0.5 mg/ml; STS 0.02 μg/ml, epirubicin 0.1 μg/ml", "quoted_text": "Anti-cancer activity was measured according to the method indicated below using the Cell Counting Kit-8 (Dojindo, Japan). Mesothelioma cell line MSTO-211H cells were disseminated at 1×10^3 cells/well to 3×10^3 cells/well and cultured. The medium was replaced on the following day followed by the addition of 50 μl of medium. […] 72 hours later, 10 μl of Cell Counting Kit-8 were added followed by measuring optical absorbance at 450 nm 1 hour later with a microplate reader (Model 680, BioRad, Hercules, Calif.). […] Cell survival rate (%)=[(As−Ab)/(Ac−Ab)×100 [Equation 2]\nIn the equation, As indicates the optical absorbance of the specimen (wells containing cells, test substance and Cell Counting Kit solution), Ac indicates the optical absorbance of a negative control (wells containing only cells and Cell Counting Kit solution) (absence of test substance), and Ab indicates the optical absorbance of a blank (cell-free wells containing only medium and Cell Counting Kit solution)."}, "[9]": {"test_system": "epirubicin-resistant mesothelioma cells (MSTO-211H EPI-R)", "assay": "eFluxx-ID Green Multidrug Resistance Assay (drug elimination activity, MAF), mesothelioma", "type": "cell-based, human", "details": "30 μM", "protocol": "(§3) More specifically, after detaching each of the cultured cells by incubating in trypsin-EDTA solution, the cells were washed with medium to obtain cell suspensions having a concentration of 1×10^4 cells/ml. […] 125 μl of eFluxx-ID-GFP solution were added 1 hour after addition of drug at the concentration directed in the kit. Following addition, the cell suspensions were incubated for 30 minutes at 37° C. followed by the addition of DAPI at a final concentration of 0.5 μg/ml and analyzing with a flow cytometer (BD LSR II, BD Biosciences). MAF values shown in the figures refer to the multidrug resistance activity factor (MAF) calculated from the mean fluorescence intensity of flow cytometry, and a high value for MAF indicates a greater inhibitory effect on ABC transporters. The calculation formulas were as indicated below: MAFMDR-1=100×(FMDR-1−F0)/FMDR-1 MAFMRP=100×(FMRP−F0)/FMRP NAFBCRP=100×(FBCRP−F0)/FBCRP [Equation 4] (wherein, F represents the mean flow cytometry value during addition of inhibitor, and F0 represents the mean flow cytometry value when inhibitor is not added)."}, "[10]": {"test_system": "epirubicin-resistant breast cancer cells (MCF-7 EPI-R)", "assay": "eFluxx-ID Green Multidrug Resistance Assay (drug elimination activity, MAF), breast cancer", "type": "cell-based, human", "details": "30 μM", "protocol": "as §3"}, "[11]": {"test_system": "cisplatin-resistant lung cancer cells (H460 Cis-R)", "assay": "eFluxx-ID Green Multidrug Resistance Assay (drug elimination activity, MAF), lung cancer", "type": "cell-based, human", "details": "30 μM", "protocol": "as §3"}, "[12]": {"test_system": "Hela cells highly expressing BCRP", "assay": "eFluxx-ID Green Multidrug Resistance Assay (drug elimination activity, MAF), BCRP", "type": "cell-based", "details": "30 μM", "protocol": "as §3"}, "[13]": {"test_system": "A549 cells highly expressing MRP", "assay": "eFluxx-ID Green Multidrug Resistance Assay (drug elimination activity, MAF), MRP", "type": "cell-based", "details": "30 μM", "protocol": "as §3"}}}
{"smiles": "C[C@]12O[C@H](C[C@]1(O)CO)n1c3ccccc3c3c4c(c5c6ccccc6n2c5c31)CNC4=O", "note": "[CEP701/lestaurtinib, lestaurtinib]", "values": [{"measurement": "detection of the compound in micelles formed by epirubicin-conjugated block copolymer", "setting": "[1]", "value": "able to be detected in the micelles"}]}
{"smiles": "COc1cccc2c1C(=O)c1c(O)c3c(c(O)c1C2=O)C[C@@](O)(C(=O)CO)C[C@@H]3O[C@H]1C[C@H](N)[C@@H](O)[C@H](C)O1", "note": "[Epi, epirubicin]", "values": [{"measurement": "survival, log-rank test P versus negative control", "setting": "[2]", "value": 0.016}, {"measurement": "survival, significant difference versus negative control (log-rank test P)", "setting": "[3]", "value": "not observed"}, {"measurement": "survival, log-rank test P versus negative control", "setting": "[4]", "value": 0.0001}, {"measurement": "elimination of epirubicin and eFluxx-ID outside the cells", "setting": "[5]", "value": "eliminated outside cells"}, {"measurement": "elimination of epirubicin and eFluxx-ID outside the cells", "setting": "[6]", "value": "eliminated outside cells"}]}
{"smiles": "CO[C@@H]1[C@H](N(C)C(=O)c2ccccc2)C[C@H]2O[C@]1(C)n1c3ccccc3c3c4c(c5c6ccccc6n2c5c31)C(=O)NC4", "note": "[PKC412]", "values": [{"measurement": "detection of the compound in micelles formed by epirubicin-conjugated block copolymer", "setting": "[1]", "value": "able to be detected in the micelles"}]}
{"smiles": "CN[C@@H]1C[C@H]2O[C@@](C)([C@@H]1OC)n1c3ccccc3c3c4c(c5c6ccccc6n2c5c31)C(=O)N[C@H]4O", "note": "[UCN-01, 7-hydroxystaurosporine]", "values": [{"measurement": "detection of the compound in micelles formed by epirubicin-conjugated block copolymer", "setting": "[1]", "value": "able to be detected in the micelles"}, {"measurement": "Aldefluor-positive cells (cancer stem cells)", "setting": "[7]", "value": "decreased"}]}
{"smiles": "N.N.[Cl][Pt][Cl]", "note": "[cisplatin]", "values": [{"measurement": "Aldefluor-positive cells (cancer stem cells)", "setting": "[7]", "value": "increased"}]}
{"smiles": "Cn1cc(C2=C(c3cn(C4CCN(Cc5ccccn5)CC4)c4ccccc34)C(=O)NC2=O)c2ccccc21", "note": "[enzastaurin]", "values": [{"measurement": "detection of the compound in micelles formed by epirubicin-conjugated block copolymer", "setting": "[1]", "value": "unable to be detected in the micelles"}]}
{"smiles": "Nc1nc2[nH]cc(CCc3ccc(C(=O)N[C@@H](CCC(=O)O)C(=O)O)cc3)c2c(=O)[nH]1", "note": "[pemetrexed]", "values": [{"measurement": "Aldefluor-positive cells (cancer stem cells)", "setting": "[7]", "value": "increased"}]}
{"smiles": "COC(=O)[C@H]1[C@H]2C[C@@H]3c4[nH]c5cc(OC)ccc5c4CCN3C[C@H]2C[C@@H](OC(=O)c2cc(OC)c(OC)c(OC)c2)[C@@H]1OC", "note": "[reserpine]", "values": [{"measurement": "detection of the compound in micelles formed by epirubicin-conjugated block copolymer", "setting": "[1]", "value": "able to be detected in the micelles"}]}
{"smiles": "CN[C@@H]1C[C@H]2O[C@@](C)([C@@H]1OC)n1c3ccccc3c3c4c(c5c6ccccc6n2c5c31)C(=O)NC4", "note": "[staurosporine]", "values": [{"measurement": "dispersibility of staurosporine-incorporating epirubicin micelle", "setting": "[1]; epirubicin:staurosporine weight ratio of 1:1", "value": "dispersibility increased"}, {"measurement": "polydispersivity of staurosporine-incorporating epirubicin micelle", "setting": "[1]; epirubicin:staurosporine weight ratio of 1:2, unsuitable as incorporating micelle", "value": "polydispersivity increased"}, {"measurement": "incorporation of staurosporine in the epirubicin micelle", "setting": "[1]; epirubicin:staurosporine weight ratio of 5:1", "value": "complete incorporation"}, {"measurement": "detection of the compound in micelles formed by epirubicin-conjugated block copolymer", "setting": "[1]", "value": "able to be detected in the micelles"}, {"measurement": "effect of addition of human α-acid glycoprotein (hAGP) on cell survival rate", "setting": "[8]", "value": "significant increase in cell survival rate"}, {"measurement": "Aldefluor-positive cells (cancer stem cells)", "setting": "[7]", "value": "decreased"}, {"measurement": "elimination of drug (eFluxx-ID) from cells", "setting": "[9]", "value": "prevented elimination"}, {"measurement": "elimination of drug (eFluxx-ID) from cells", "setting": "[10]", "value": "prevented elimination"}, {"measurement": "elimination of drug (eFluxx-ID) from cells", "setting": "[11]", "value": "prevented elimination"}, {"measurement": "elimination of drug (eFluxx-ID) from cells", "setting": "[12]", "value": "prevented elimination"}, {"measurement": "elimination of drug (eFluxx-ID) from cells", "setting": "[13]", "value": "prevented elimination"}]}
{"smiles": "COc1ccc(CCN(C)CCCC(C#N)(c2ccc(OC)c(OC)c2)C(C)C)cc1OC", "note": "(stereo not drawn) [verapamil]", "values": [{"measurement": "elimination of epirubicin and eFluxx-ID outside the cells", "setting": "[5]", "value": "localized within the cells"}, {"measurement": "elimination of epirubicin and eFluxx-ID outside the cells", "setting": "[6]", "value": "localized within the cells"}]}
{"smiles": "CS(=O)(=O)c1ccc(C(=O)Nc2ccc(Cl)c(-c3ccccn3)c2)c(Cl)c1", "note": "[vismodegib]", "values": [{"measurement": "detection of the compound in micelles formed by epirubicin-conjugated block copolymer", "setting": "[1]", "value": "unable to be detected in the micelles"}]}
